This note sets out measurements from patent US20240051968A1, “METHODS FOR TREATING SPINOCEREBELLAR ATAXIA TYPE 3” (PTC Therapeutics, Inc., priority 2021, published 2024).

For assay [1], the system named is Total ATXN3 (tATXN3) protein. The experiment in a line: Endogenous Total ATXN3 (tATXN3) Protein Assay (MSD immunoassay of cell lysates). The assay is classed as cell-based. The conditions noted are these: cells incubated with compound 48 h; 7-point concentration curve; MSD detection in cell lysate. The method, then:
Endogenous Total ATXN3 (tATXN3) Protein Assay
Meso Scale Discovery (MSD) 96-well or 384-well plates were coated overnight at 4° C. with Ataxin 3 mouse monoclonal antibody (Invitrogen, MA3-082) at a concentration of 0.5 μg/mL in PBS (30 μL per well). Plates were then washed three times with 300 μL wash buffer (0.05% TWEEN®-20, polyethylene glycol sorbitan monolaurate, in PBS) and blocked (Meso Scale Diagnostics, R93BA-1; 5% BSA in PBS) for 2 h at room temperature with rotational shaking and then washed three times with wash buffer.
Test compounds were serially diluted 3.16-fold in 100% DMSO to generate a 7-point concentration curve. Aliquots of 0.5 μL of diluted compounds were transferred to a 96-well flat bottom plate by a liquid handler. An aliquot of 0.5 μL DMSO was also transferred to separate wells and used as controls. Duplicate samples were set up for each compound concentration and for the DMSO control.
Cells were thawed and incubated in cell culture media (DMEM, 10% FBS, and 1% antibiotic cocktail) for 72 h. Cells were trypsinized, counted, and re-suspended to a concentration of 100,000 cells/mL in cell culture media. A 100 μL aliquot of the cell suspensions were plated at 10,000 cells per well in the compound containing 96 well microtiter plate and incubated for in a cell culture incubator (37° C., 5% CO2, 100% relative humidity). After 48 h, the medium was removed and 50-100 μL of lysis buffer (Meso Scale Diagnostics, R60TX-2) containing 1× halt protease inhibitor cocktail of (Thermo Scientific, Halt™ Protease Inhibitor Cocktail, 78430) per well was added to cells to provide a “cell lysate”. The plate was placed on a shaker at 4° C. for 30 minutes, then stored at −80° C.
Cell lysate samples (25 μL) were transferred to the antibody-coated MSD plate and incubated overnight at 4° C. After removal of the lysates, the plate was washed three times with wash buffer, and 25 μL of Ataxin 3 recombinant rabbit monoclonal antibody (Invitrogen, #702788) secondary antibody (diluted to 0.25 μg/mL in 0.05% TWEEN®-20 in blocking buffer) was added to each well and incubated with shaking for 1-2 h at room temperature. Following incubation with the secondary antibody, the wells were rinsed with wash buffer and then […] Anti Rabbit Antibody Goat SULFO-TAG Labeled (Meso Scale Diagnostics, R32AB-1) detecting antibody (diluted to 0.25 μg/mL in 0.05% TWEEN®-20 in blocking buffer) was added to each well and incubated with shaking for 1 h at room temperature. After rinsing three times with wash buffer, 150 μL of Read Buffer T with surfactant (tris-based buffer containing tripropylamine, Meso Scale Diagnostics, R92TC-1) were added to each empty well, and the plate was imaged on a SI 6000 imager (MSD) according to manufacturers' instructions provided for 96- or 384-well plates.

Assay [2] relates to ATXN3 pre-mRNA. The assay is described as follows: RT-qPCR Assay to Quantify Exon 4 Skipping in ATXN3 pre-mRNA in Cells. The assay is classed as cell-based. The conditions noted are these: cells incubated with compound 24 h, 7-point concentration curve, GAPDH control. The protocol: RT-qPCR Assay to Quantify Exon 4 Skipping in ATXN3 pre-mRNA in Cells Test compounds were serially diluted 3.16-fold in 100% DMSO to generate a 7-point concentration curve. Aliquots of 0.5 μL of diluted compounds were transferred to a 96-well flat bottom plate by a liquid handler. An aliquot of 0.5 μL DMSO was also transferred to separate wells and used as controls. Duplicate samples were set up for each compound concentration and for the DMSO control.
Cells were thawed and incubated in cell culture media (DMEM, 10% FBS, and 1% antibiotic cocktail) for 72 h. Cells were trypsinized, counted, and re-suspended to a concentration of 100,000 cells/mL in cell culture media. A 100 μL aliquot of the cell suspensions were plated at 10,000 cells per well in the compound containing 96 well microtiter plate and incubated for in a cell culture incubator (37° C., 5% CO2, 100% relative humidity).
After 24 h, media was aspirated from the cells and 50 μL of the RCL2 lysis buffer (10 mM Tris-HCL pH 7.4, 150 mM NaCl, 0.33% IGEPAL® CA-630) was added to each well and incubated at room temperature for 1 min. Chilled nuclease free water (50 μL per well) was added and the plates were immediately transferred on ice. After 1 min on ice, plates were frozen at −80° C. overnight.
Preparation of RT-qPCR Reaction Mixture:
An aliquot of 2 μL/well of the cell lysates was transferred using the liquid handler to the Armadillo 384-Well PCR plate containing 8 μL/well of the RT-qPCR reaction mixture that was prepared as detailed above. The plates were then sealed with MicroAmp™ Optical Adhesive Film followed by spinning down for 1 min and placed in the CFX384 thermocycler (BioRad).
The RT-qPCR was carried out at the following temperatures for the indicated time: • Step 1: 48° C. (30 min) • Step 2: 95° C. (10 min) • Step 3: 95° C. (15 sec) • Step 4: 60° C. (1 min); then, repeated Steps 3 and 4 for a total of 40 cycles.
The percent exon 4 skipping was calculated for each dose of compound treatment using Equations 1 and 2.
Data were fit to a dose response curve and the IC50 was interpolated using XLfit® statistical and curve fitting package.
An IC50 value between >2.0 μM and ≤3.0 μM is indicated by one star (*). […] IC50 value between >0.5 μM and ≤1.0 μM is indicated by four stars (****). An IC50 value ≤0.5 μM is indicated by five stars (*****).
Background: Quantitative PCR measures a nucleic acid by following its amplification.

In the case of `Cc1c(C[C@@H](N)CC(C)C)sc2c(NCc3cccs3)cc(Cl)nc12` [Cpd 61, 2-[(2S)-2-amino-4-methylpentyl]-5-chloro-3-methyl-N-[(thiophen-2-yl)methyl]thieno[3,2-b]pyridin-7-amine], the IC50 in assay [1] and in assay [2] was not above 500 nM in each case.

`N[C@H](CF)Cc1sc2c(NCc3cccs3)cc(Cl)nc2c1Br` [Cpd 63, 2-[(2S)-2-amino-3-fluoropropyl]-3-bromo-5-chloro-N-[(thiophen-2-yl)methyl]thieno[3,2-b]pyridin-7-amine]: the IC50 in assay [1] is more than 2000 nM; in assay [2], 1500 to 2000 nM.

For `N[C@@H](COC(F)(F)F)Cc1sc2c(NCc3nccs3)cc(Cl)nc2c1Br` [Cpd 64, 2-[(2R)-2-amino-3-(trifluoromethoxy)propyl]-3-bromo-5-chloro-N-[(1,3-thiazol-2-yl)methyl]thieno[3,2-b]pyridin-7-amine], the half-maximal inhibitory concentration (IC50) in assay [1] and in assay [2] was 500 to 1000 nM in each case.

As to `CC[C@H](N)Cc1sc2c(NCc3cccs3)cc(Cl)nc2c1Br` [Cpd 73, 2-[(2S)-2-aminobutyl]-3-bromo-5-chloro-N-[(thiophen-2-yl)methyl]thieno[3,2-b]pyridin-7-amine], the IC50 in assay [1] and in assay [2] was not above 500 nM in each case.

In the case of `N[C@@H](CCF)Cc1sc2c(NCc3cccs3)cc(Cl)nc2c1Br` [Cpd 74, 2-[(2S)-2-amino-4-fluorobutyl]-3-bromo-5-chloro-N-[(thiophen-2-yl)methyl]thieno[3,2-b]pyridin-7-amine], the IC50 in assay [1] and in assay [2] was not above 500 nM each time.

As for `N[C@@H](CF)Cc1sc2c(NCc3cccs3)cc(Cl)nc2c1Br` [Cpd 76, 2-[(2R)-2-amino-3-fluoropropyl]-3-bromo-5-chloro-N-[(thiophen-2-yl)methyl]thieno[3,2-b]pyridin-7-amine], the IC50 in assay [1] and in assay [2] was not above 500 nM each time.

Consider `Cc1c(C[C@@H](N)CF)sc2c(NCc3ccco3)cc(Cl)nc12` [Cpd 81, 2-[(2R)-2-amino-3-fluoropropyl]-5-chloro-N-[(furan-2-yl)methyl]-3-methylthieno[3,2-b]pyridin-7-amine], for which the IC50 in assay [1] and in assay [2] was not above 500 nM in each case.

Consider `CC[C@H](N)Cc1sc2c(NCc3cccs3)cc(Cl)nc2c1Cl` [Cpd 83, 2-[(2S)-2-aminobutyl]-3,5-dichloro-N-[(thiophen-2-yl)methyl]thieno[3,2-b]pyridin-7-amine], for which the IC50 in assay [1] and in assay [2] was not above 500 nM throughout.

For `N[C@@H](CF)Cc1sc2c(NCc3cccs3)cc(Cl)nc2c1Cl` [Cpd 84, 2-[(2R)-2-amino-3-fluoropropyl]-3,5-dichloro-N-[(thiophen-2-yl)methyl]thieno[3,2-b]pyridin-7-amine], the IC50 in assay [1] and in assay [2] was not above 500 nM throughout.

As for `Cc1c(C[C@@H](N)CF)sc2c(NCc3cccs3)cc(Cl)nc12` [Cpd 91, 2-[(2R)-2-amino-3-fluoropropyl]-5-chloro-3-methyl-N-[(thiophen-2-yl)methyl]thieno[3,2-b]pyridin-7-amine], the IC50 fell in the range of 1000 to 1500 nM in assay [1] and 2000 to 3000 nM in assay [2].

On to `Cc1c(C[C@@H](N)CCF)sc2c(NCc3cccs3)cc(Cl)nc12` [Cpd 92, 2-[(2S)-2-amino-4-fluorobutyl]-5-chloro-3-methyl-N-[(thiophen-2-yl)methyl]thieno[3,2-b]pyridin-7-amine], for which the IC50 in assay [1] and in assay [2] was not above 500 nM in each case.

Take `N[C@@H](CCF)Cc1sc2c(NCc3ccco3)cc(Cl)nc2c1Cl` [Cpd 93, 2-[(2S)-2-amino-4-fluorobutyl]-3,5-dichloro-N-[(furan-2-yl)methyl]thieno[3,2-b]pyridin-7-amine]: the IC50 in assay [1] and in assay [2] was not above 500 nM each time.

As for `N[C@@H](CF)Cc1sc2c(NCc3ccco3)cc(Cl)nc2c1Cl` [Cpd 94, 2-[(2R)-2-amino-3-fluoropropyl]-3,5-dichloro-N-[(furan-2-yl)methyl]thieno[3,2-b]pyridin-7-amine], the IC50 in assay [1] and in assay [2] was not above 500 nM throughout.

As for `Cc1c(C[C@@H](N)CCF)sc2c(NCc3ccco3)cc(Cl)nc12` [Cpd 95, 2-[(2S)-2-amino-4-fluorobutyl]-5-chloro-N-[(furan-2-yl)methyl]-3-methylthieno[3,2-b]pyridin-7-amine], the IC50 in assay [1] and in assay [2] was not above 500 nM each time.

Turning to `N[C@@H](CCF)Cc1sc2c(NCc3ccco3)cc(Cl)nc2c1Br` [Cpd 97, 2-[(2S)-2-amino-4-fluorobutyl]-3-bromo-5-chloro-N-[(furan-2-yl)methyl]thieno[3,2-b]pyridin-7-amine], the IC50 in assay [1] and in assay [2] was not above 500 nM each time.

For the compound `N#CC[C@H](N)Cc1sc2c(NCc3ccco3)cc(Cl)nc2c1Br` [Cpd 103, (3S)-3-amino-4-(3-bromo-5-chloro-7-{[(furan-2-yl)methyl]amino}thieno[3,2-b]pyridin-2-yl)butanenitrile], the IC50 in assay [1] and in assay [2] was not above 500 nM each time.

With `CSC[C@H](N)Cc1sc2c(NCc3ccco3)cc(Cl)nc2c1C` [Cpd 104, 2-[(2R)-2-amino-3-(methylsulfanyl)propyl]-5-chloro-N-[(furan-2-yl)methyl]-3-methylthieno[3,2-b]pyridin-7-amine], the 50% inhibitory concentration (IC50) in assay [1] and in assay [2] was not above 500 nM each time.

Turning to `Cc1c(C[C@@H](N)CC#N)sc2c(NCc3cccs3)cc(Cl)nc12` [Cpd 105, (3S)-3-amino-4-(5-chloro-3-methyl-7-{[(thiophen-2-yl)methyl]amino}thieno[3,2-b]pyridin-2-yl)butanenitrile], the IC50 in assay [1] and in assay [2] was not above 500 nM in each case.

In the case of `N#CC[C@H](N)Cc1sc2c(NCc3cccs3)cc(Cl)nc2c1Cl` [Cpd 106, (3S)-3-amino-4-(3,5-dichloro-7-{[(thiophen-2-yl)methyl]amino}thieno[3,2-b]pyridin-2-yl)butanenitrile], the half-inhibitory concentration (IC50) in assay [1] and in assay [2] was not above 500 nM in each case.

As for `N[C@H](Cc1sc2c(NCc3cccs3)cc(Cl)nc2c1Br)CC(F)F` [Cpd 107, 2-[(2S)-2-amino-4,4-difluorobutyl]-3-bromo-5-chloro-N-[(thiophen-2-yl)methyl]thieno[3,2-b]pyridin-7-amine], the IC50 in assay [1] is 1000 to 1500 nM. Moreover, the “IC50, exon 4 skipping in ATXN3 pre-mRNA” value in assay [2] is “inactive”.

Take `Cc1c(C[C@@H](N)CS(C)(=O)=O)sc2c(NCc3ccco3)cc(Cl)nc12` [Cpd 108, 2-[(2R)-2-amino-3-(methanesulfonyl)propyl]-5-chloro-N-[(furan-2-yl)methyl]-3-methylthieno[3,2-b]pyridin-7-amine]: the IC50 in assay [1] and in assay [2] was not above 500 nM in each case.

For orientation: IC50 means the concentration that inhibits the measured activity by half.
